Patent US20230120895A1, “PESTICIDALLY ACTIVE HETEROCYCLIC DERIVATIVES WITH SULFUR CONTAINING SUBSTITUENTS” (SYNGENTA CROP PROTECTION AG, priority 2019, published 2023)

Columns and labels:
Format in all cases: in vivo
Myzus persicae [1] = assay: Activity against Myzus persicae (green peach aphid), feeding/contact activity; settings: foliar, 144 h, application rate 200 ppm, sprayed sunflower leaf discs, mixed ages, 6 days after infestation
Experimental: Sunflower leaf discs were placed onto agar in a 24-well microtiter plate and sprayed with aqueous test solutions prepared from 10′000 ppm DMSO stock solutions. After drying, the leaf discs were infested with an aphid population of mixed ages. The samples were assessed for mortality 6 days after infestation.

Euschistus heros = assay: Activity against Euschistus heros (neotropical brown stink bug); settings: 120 h, application rate 200 ppm, sprayed soybean leaves, N2 nymphs, 5 days after infestation, read-out: effect in at least one of the two categories (mortality or growth inhibition)
Experimental: Soybean leaves on agar in 24-well microtiter plates were sprayed with aqueous test solutions prepared from 10′000 ppm DMSO stock solutions. After drying the leaves were infested with N2 nymphs. The samples were assessed for mortality and growth inhibition in comparison to untreated samples 5 days after infestation.

Spodoptera littoralis = assay: Activity against Spodoptera littoralis (Egyptian cotton leaf worm); settings: foliar, 72 h, application rate 200 ppm, sprayed cotton leaf discs, L1 larvae, 3 days after infestation, read-out: control (mortality, anti-feeding effect or growth inhibition)
Experimental: Cotton leaf discs were placed onto agar in 24-well microtiter plates and sprayed with aqueous test solutions prepared from 10′000 ppm DMSO stock solutions. After drying the leaf discs were infested with five L1 larvae. The samples were assessed for mortality, anti-feeding effect, and growth inhibition in comparison to untreated samples 3 days after infestation. Control of Spodoptera littoralis by a test sample is given when at least one of the categories mortality, anti-feedant effect, and growth inhibition is higher than the untreated sample.

Plutella xylostella = assay: Activity against Plutella xylostella (diamond back moth); settings: 192 h, application rate 200 ppm, artificial diet, eggs, 8 days after infestation, read-out: effect in at least one of the two categories (mortality or growth inhibition)
Experimental: 24-well microtiter plates with artificial diet were treated with aqueous test solutions prepared from 10′000 ppm DMSO stock solutions by pipetting. After drying, Plutella eggs were pipetted through a plastic stencil onto a gel blotting paper and the plate was closed with it. The samples were assessed for mortality and growth inhibition in comparison to untreated samples 8 days after infestation. The following compounds gave an effect of at least 80% in at least one of the two categories (mortality or growth inhibition) at an application rate of 200 ppm: P2, P3, P4, P5, P6, P8, P13.

Myzus persicae [2] = assay: Activity against Myzus persicae (green peach aphid), systemic activity; settings: 144 h, test rate 24 ppm, roots of pea seedlings in test solution, 6 days
Experimental: Roots of pea seedlings infested with an aphid population of mixed ages were placed directly into aqueous test solutions prepared from 10′000 DMSO stock solutions. The samples were assessed for mortality 6 days after placing seedlings into test solutions.

Diabrotica balteata = assay: Activity against Diabrotica balteata (corn root worm); settings: 96 h, application rate 200 ppm, sprayed maize sprouts, L2 larvae, 4 days after infestation, read-out: effect in at least one of the two categories (mortality or growth inhibition)
Experimental: Maize sprouts placed onto an agar layer in 24-well microtiter plates were treated with aqueous test solutions prepared from 10′000 ppm DMSO stock solutions by spraying. After drying, the plates were infested with L2 larvae (6 to 10 per well). The samples were assessed for mortality and growth inhibition in comparison to untreated samples 4 days after infestation.

Chilo suppressalis = assay: Activity against Chilo suppressalis (striped rice stemborer); settings: 144 h, application rate 200 ppm, artificial diet, L2 larvae, 6 days after infestation, read-out: control (mortality, anti-feeding effect or growth inhibition)
Experimental: 24-well microtiter plates with artificial diet were treated with aqueous test solutions prepared from 10′000 ppm DMSO stock solutions by pipetting. After drying, the plates were infested with L2 larvae (6-8 per well). The samples were assessed for mortality, anti-feeding effect, and growth inhibition in comparison to untreated samples 6 days after infestation. Control of Chilo suppressalis by a test sample is given when at least one of the categories mortality, anti-feedant effect, and growth inhibition is higher than the untreated sample.

[3] = system: Frankliniella occidentalis; assay: Activity against Frankliniella occidentalis (western flower thrips); settings: foliar, 168 h, application rate 200 ppm, sprayed sunflower leaf discs, mixed ages, 7 days after infestation
Experimental: Sunflower leaf discs were placed on agar in 24-well microtiter plates and sprayed with aqueous test solutions prepared from […] stock solutions. After drying the leaf discs were infested with a Frankliniella population of mixed ages. The samples were assessed for mortality 7 days after infestation.

[4] = system: Carpocapsa (Cydia) pomonella; assay: Activity against Carpocapsa (Cydia) pomonella (codling moth); settings: 336 h, application rate 12.5 ppm, sprayed diet cubes, L1 larvae, 14 days after infestation
Experimental: Diet cubes coated with paraffin were sprayed with diluted test solutions in an application chamber. After drying off the treated cubes (10 replicates) were infested with 1 L1 larvae. Samples were incubated at 26-27° C. and checked 14 days after infestation for mortality and growth inhibition.

CCS(=O)(=O)c1cccnc1-c1cc2ccc(=O)n(CC(F)(F)C(F)(F)F)c2cn1 [P2, 6-(3-ethylsulfonyl-2-pyridyl)-1-(2,2,3,3,3-pentafluoropropyl)-1,7-naphthyridin-2-one]
≥ 80%: mortality at 200 ppm (Myzus persicae [1]) | percent effect (mortality or growth inhibition) at 200 ppm (Euschistus heros) | percent control (mortality, anti-feedant effect or growth inhibition) at 200 ppm (Spodoptera littoralis) | percent effect (mortality or growth inhibition) at 200 ppm (Plutella xylostella) | mortality at 24 ppm (Myzus persicae [2]) | percent effect (mortality or growth inhibition) at 200 ppm (Diabrotica balteata) | percent control (mortality, anti-feedant effect or growth inhibition) at 200 ppm (Chilo suppressalis)

CCS(=O)(=O)c1cc(C2(C#N)CC2)cnc1-c1cc2ccc(=O)n(CC(F)(F)C(F)(F)F)c2cn1 [P3, 1-[5-ethylsulfonyl-6-[2-oxo-1-(2,2,3,3,3-pentafluoropropyl)-1,7-naphthyridin-6-yl]-3-pyridyl]cyclopropanecarbonitrile]
≥ 80%: mortality at 200 ppm [3] | mortality at 200 ppm (Myzus persicae [1]) | percent effect (mortality or growth inhibition) at 200 ppm (Euschistus heros) | percent control (mortality, anti-feedant effect or growth inhibition) at 200 ppm (Spodoptera littoralis) | mortality at 12.5 ppm [4] | percent effect (mortality or growth inhibition) at 200 ppm (Plutella xylostella) | mortality at 24 ppm (Myzus persicae [2]) | percent effect (mortality or growth inhibition) at 200 ppm (Diabrotica balteata) | percent control (mortality, anti-feedant effect or growth inhibition) at 200 ppm (Chilo suppressalis)

CCS(=O)(=O)c1ccc(-n2cncn2)nc1-c1cc2ccc(=O)n(CC(F)(F)C(F)(F)F)c2cn1 [P4, 6-[3-ethylsulfonyl-6-(1,2,4-triazol-1-yl)-2-pyridyl]-1-(2,2,3,3,3-pentafluoropropyl)-1,7-naphthyridin-2-one]
≥ 80%: percent control (mortality, anti-feedant effect or growth inhibition) at 200 ppm (Spodoptera littoralis) | mortality at 12.5 ppm [4] | percent effect (mortality or growth inhibition) at 200 ppm (Plutella xylostella) | percent control (mortality, anti-feedant effect or growth inhibition) at 200 ppm (Chilo suppressalis)

CCS(=O)(=O)c1ccc(C2CC2)nc1-c1cc2ccc(=O)n(CC(F)(F)C(F)(F)F)c2cn1 [P5, 6-(6-cyclopropyl-3-ethylsulfonyl-2-pyridyl)-1-(2,2,3,3,3-pentafluoropropyl)-1,7-naphthyridin-2-one]
≥ 80%: mortality at 200 ppm (Myzus persicae [1]) | percent control (mortality, anti-feedant effect or growth inhibition) at 200 ppm (Spodoptera littoralis) | percent effect (mortality or growth inhibition) at 200 ppm (Plutella xylostella) | percent effect (mortality or growth inhibition) at 200 ppm (Diabrotica balteata) | percent control (mortality, anti-feedant effect or growth inhibition) at 200 ppm (Chilo suppressalis)

CCS(=O)(=O)c1cc(C(C)(C)C#N)cnc1-c1cc2ccc(=O)n(CC(F)(F)C(F)(F)F)c2cn1 [P6, 2-[5-ethylsulfonyl-6-[2-oxo-1-(2,2,3,3,3-pentafluoropropyl)-1,7-naphthyridin-6-yl]-3-pyridyl]-2-methyl-propanenitrile]
≥ 80%: percent effect (mortality or growth inhibition) at 200 ppm (Euschistus heros) | percent control (mortality, anti-feedant effect or growth inhibition) at 200 ppm (Spodoptera littoralis) | mortality at 12.5 ppm [4] | percent effect (mortality or growth inhibition) at 200 ppm (Plutella xylostella) | percent effect (mortality or growth inhibition) at 200 ppm (Diabrotica balteata) | percent control (mortality, anti-feedant effect or growth inhibition) at 200 ppm (Chilo suppressalis)

CCS(=O)(=O)c1cc(N(C)C(C)=O)cnc1-c1cc2ccc(=O)n(CC(F)(F)C(F)(F)F)c2cn1 [P7, N-[5-ethylsulfonyl-6-[2-oxo-1-(2,2,3,3,3-pentafluoropropyl)-1,7-naphthyridin-6-yl]-3-pyridyl]-N-methyl-acetamide]
≥ 80%: mortality at 200 ppm (Myzus persicae [1]) | percent control (mortality, anti-feedant effect or growth inhibition) at 200 ppm (Spodoptera littoralis) | mortality at 24 ppm (Myzus persicae [2]) | percent effect (mortality or growth inhibition) at 200 ppm (Diabrotica balteata) | percent control (mortality, anti-feedant effect or growth inhibition) at 200 ppm (Chilo suppressalis)

CCS(=O)(=O)c1cc(-n2ccc(Cl)n2)cnc1-c1cc2ccc(=O)n(CC(F)(F)C(F)(F)F)c2cn1 [P8, 6-[5-(3-chloropyrazol-1-yl)-3-ethylsulfonyl-2-pyridyl]-1-(2,2,3,3,3-pentafluoropropyl)-1,7-naphthyridin-2-one]
≥ 80%: percent effect (mortality or growth inhibition) at 200 ppm (Euschistus heros) | percent control (mortality, anti-feedant effect or growth inhibition) at 200 ppm (Spodoptera littoralis) | percent effect (mortality or growth inhibition) at 200 ppm (Plutella xylostella) | percent effect (mortality or growth inhibition) at 200 ppm (Diabrotica balteata) | percent control (mortality, anti-feedant effect or growth inhibition) at 200 ppm (Chilo suppressalis)

CCS(=O)(=O)c1cc(Oc2ccccn2)cnc1-c1cc2ccc(=O)n(CC(F)(F)C(F)(F)F)c2cn1 [P9, 6-[3-ethylsulfonyl-5-(2-pyridyloxy)-2-pyridyl]-1-(2,2,3,3,3-pentafluoropropyl)-1,7-naphthyridin-2-one]
≥ 80%: percent effect (mortality or growth inhibition) at 200 ppm (Euschistus heros) | percent control (mortality, anti-feedant effect or growth inhibition) at 200 ppm (Spodoptera littoralis) | percent effect (mortality or growth inhibition) at 200 ppm (Diabrotica balteata) | percent control (mortality, anti-feedant effect or growth inhibition) at 200 ppm (Chilo suppressalis)

CCS(=O)(=O)c1cc(C2(C#N)CC2)cnc1-c1cc2ccc(=O)n(CC(F)(F)F)c2cn1 [P10, 1-[5-ethylsulfonyl-6-[2-oxo-1-(2,2,2-trifluoroethyl)-1,7-naphthyridin-6-yl]-3-pyridyl]cyclopropanecarbonitrile]
≥ 80%: mortality at 200 ppm (Myzus persicae [1]) | percent effect (mortality or growth inhibition) at 200 ppm (Euschistus heros) | percent control (mortality, anti-feedant effect or growth inhibition) at 200 ppm (Spodoptera littoralis) | percent effect (mortality or growth inhibition) at 200 ppm (Diabrotica balteata) | percent control (mortality, anti-feedant effect or growth inhibition) at 200 ppm (Chilo suppressalis)

CCS(=O)(=O)c1ccc(-n2nccn2)nc1-c1cc2ccc(=O)n(CC(F)(F)C(F)(F)F)c2cn1 [P11, 6-[3-ethylsulfonyl-6-(triazol-2-yl)-2-pyridyl]-1-(2,2,3,3,3-pentafluoropropyl)-1,7-naphthyridin-2-one]
≥ 80%: percent control (mortality, anti-feedant effect or growth inhibition) at 200 ppm (Spodoptera littoralis) | percent effect (mortality or growth inhibition) at 200 ppm (Diabrotica balteata) | percent control (mortality, anti-feedant effect or growth inhibition) at 200 ppm (Chilo suppressalis)

CCS(=O)(=O)c1ccc(-n2ccnn2)nc1-c1cc2ccc(=O)n(CC(F)(F)C(F)(F)F)c2cn1 [P12, 6-[3-ethylsulfonyl-6-(triazol-1-yl)-2-pyridyl]-1-(2,2,3,3,3-pentafluoropropyl)-1,7-naphthyridin-2-one]
≥ 80%: percent control (mortality, anti-feedant effect or growth inhibition) at 200 ppm (Spodoptera littoralis) | percent effect (mortality or growth inhibition) at 200 ppm (Diabrotica balteata) | percent control (mortality, anti-feedant effect or growth inhibition) at 200 ppm (Chilo suppressalis)

CCSc1cc(C2(C#N)CC2)cnc1-c1cc2ccc(=O)n(CC(F)(F)C(F)(F)F)c2cn1 [P13, 1-[5-ethylsulfanyl-6-[2-oxo-1-(2,2,3,3,3-pentafluoropropyl)-1,7-naphthyridin-6-yl]-3-pyridyl]cyclopropanecarbonitrile]
≥ 80%: percent control (mortality, anti-feedant effect or growth inhibition) at 200 ppm (Spodoptera littoralis) | percent effect (mortality or growth inhibition) at 200 ppm (Plutella xylostella) | percent effect (mortality or growth inhibition) at 200 ppm (Diabrotica balteata) | percent control (mortality, anti-feedant effect or growth inhibition) at 200 ppm (Chilo suppressalis)

CCSc1cc(-n2ccc(Cl)n2)cnc1-c1cc2ccc(=O)n(CC(F)(F)C(F)(F)F)c2cn1 [P14, 6-[5-(3-chloropyrazol-1-yl)-3-ethylsulfanyl-2-pyridyl]-1-(2,2,3,3,3-pentafluoropropyl)-1,7-naphthyridin-2-one]
≥ 80%: percent control (mortality, anti-feedant effect or growth inhibition) at 200 ppm (Chilo suppressalis)

CCSc1cc(C2(C#N)CC2)cnc1-c1cc2ccc(=O)n(CC(F)(F)F)c2cn1 [P15, 1-[5-ethylsulfanyl-6-[2-oxo-1-(2,2,2-trifluoroethyl)-1,7-naphthyridin-6-yl]-3-pyridyl]cyclopropanecarbonitrile]
≥ 80%: percent control (mortality, anti-feedant effect or growth inhibition) at 200 ppm (Spodoptera littoralis) | percent effect (mortality or growth inhibition) at 200 ppm (Diabrotica balteata) | percent control (mortality, anti-feedant effect or growth inhibition) at 200 ppm (Chilo suppressalis)
